{
  "source": "patent US8173680B2",
  "about": "“Cannabinoid receptor modulators” (7TM Pharma A/S, priority 2007, dated 2012)",
  "biological_target": "T1, human CB1 receptor (Homo sapiens, UniProt P21554)",
  "T1 construct": "expressed in transfected cells; membrane preparation",
  "T1 sequence (P21554 whole entry)": "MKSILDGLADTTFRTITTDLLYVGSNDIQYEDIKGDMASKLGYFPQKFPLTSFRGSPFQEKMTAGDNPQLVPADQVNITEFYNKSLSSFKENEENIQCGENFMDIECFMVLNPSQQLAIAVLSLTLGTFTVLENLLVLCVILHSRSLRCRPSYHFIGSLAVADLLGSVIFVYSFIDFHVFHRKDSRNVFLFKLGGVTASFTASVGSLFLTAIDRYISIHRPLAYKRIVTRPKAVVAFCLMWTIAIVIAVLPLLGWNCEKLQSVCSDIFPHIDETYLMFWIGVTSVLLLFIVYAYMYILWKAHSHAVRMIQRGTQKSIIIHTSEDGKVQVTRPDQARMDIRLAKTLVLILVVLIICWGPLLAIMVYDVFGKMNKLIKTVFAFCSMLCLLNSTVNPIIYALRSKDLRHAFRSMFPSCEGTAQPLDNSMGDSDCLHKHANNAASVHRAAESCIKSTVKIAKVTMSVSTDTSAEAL",
  "assay": "Cannabinoid Receptor-1 functional assay: inhibition of CP55940-induced [35S]GTPγS binding to membranes from CHO-K1 cells expressing the human CB1 receptor",
  "type": "biochemical",
  "details": "antagonizing CB1 receptor agonist CP55940 (3 nM), [35S]GTPγS SPA, read-out: Antagonism IC50",
  "source_text": "Transfection and Cell Culture—The cDNA encoding the human CB1 (Cannabinoid Receptor-1) receptor (GenBank accession number NM_016083) was cloned from a human adipose tissue cDNA library and cloned into the eukaryotic expression vector pcDNA3.1 (Invitrogen).\nChinese Hamster Ovary cells (CHO-K1) stably expressing recombinant human CB1 receptors were generated by transfecting the plasmid containing the coding sequence of the human CB1 receptor in CHO-K1 cells, using lipofectamine, according to the manufacturers instructions. Resistant clones were selected in the presence of 600 μg/ml G418 (Life technology). Stably transfected CHO-K1 cells were maintained in Ham's F-12 culture medium (Invitrogen), supplemented with 10% fetal calf serum (Invitrogen), 100 U/ml penicillin, 100 μg/ml streptomycin (Life Technology), and 600 μg/ml G418.\nCannabinoid Receptor-1 Functional Assay.\nFunctional activities of the above examples of compounds of the invention were assessed in vitro by measuring their ability to inhibit CP55940-induced [^35S]GTPγS binding to membranes prepared from CHO-K1 cells expressing the human CB1 receptor (described in Transfection and Cell Culture). CP55940 is a well known non-selective CB1 and CB2 receptor agonist (e.g Felder et al., 1995, Molecular Pharmacology, (48) 443-50). Membranes were prepared by a standard procedure. Briefly, cells were harvested using 10 mM EDTA and collected by centrifugation. Pelleted cells were homogenized in ice-cold 20 mM Hepes (pH 7.4), 10 mM EDTA and protease inhibitors (Complete protease inhibitor cocktail tablet, Roche) using an Ultra Turrax Homogenizer. The homogenate was centrifuged at 14 000 rpm for 45 min. at 4° C. The resultant pellet was resuspended in the same buffer but with only 0.1 mM EDTA and was again centrifuged at 14 000 rpm for 45 min. at 4° C. The resulting pellet (membranes) was resuspended in 20 mM Hepes (pH 7.4), 0.1 mM EDTA, 2 mM MgCl2 and protease inhibitors and protein concentration was determined by Micro BCA Protein Assay Reagent Kit (Pierce Biotechnology) according to the manufacturers instructions. The [^35S]GTPγS SPA (Scintillation Proximity Assay) binding assay was performed by incubating 5 μg/well membranes prepared from CHO-K1 cells expressing the human CB1 receptor with 1 nM [^35S]GTPγS (Perkin Elmer—NEG 030H) in the presence of 3 nM of CP55940 and various concentrations of the test compounds at room temperature for 1 hr in 96-well microtiter plates. 0.4 mg/well SPA beads (PVT-WGA; RPNQ0001 Amersham Pharmacia Biotech) were then added and the incubation continued for further 30 min. on an orbital shaker. The assay buffer contained 50 mM HEPES (pH 7.5), 50 mM NaCl, 2.5 mM MgCl2, 0.1% BSA, 1 μM GDP and 100 μg/ml Saponin. Microtiter plates were centrifuged at 1500 rpm for 5 min. and radioactivity was read immediately using a Topcounter (PerkinElmer Life Sciences). Data were analyzed and IC50 values determined by non-linear regression analysis using the Prism software (GraphPad Software, San Diego).",
  "data": [
    {"molecule": "1-(2-Chloro-phenyl)-5-(4-chloro-phenyl)-4-(5-oxo-4,5-dihydro-[1,3,4]oxadiazol-2-ylmethyl)-1H-pyrazole-3-carboxylic acid ((R)-1-p-tolyl-ethyl)-amide [Compound 2.02]", "values": [
      {"measurement": "IC50", "result": "< 0.5", "unit": "µM"}
    ]},
    {"molecule": "C[C@@H](NC(=O)c1nn(-c2ccccc2Cl)c(-c2ccc(Cl)cc2)c1Cc1noc(=O)[nH]1)c1ccc(C(F)(F)F)cc1", "note": "[Compound 1.01, 5-(4-Chloro-phenyl)-1-(2-chloro-phenyl)-4-(5-oxo-4,5-dihydro-[1,2,4]oxadiazol-3-ylmethyl)-1H-pyrazole-3-carboxylic acid [(R)-1-(4-trifluoromethyl-phenyl)-ethyl]-amide]", "values": [
      {"measurement": "IC50", "result": "< 0.5", "unit": "µM"}
    ]},
    {"molecule": "O=C(c1nn(-c2ccccc2Cl)c(-c2ccc(Cl)cc2)c1Cc1n[nH]c(=O)o1)N1CCC(c2ccccc2F)CC1", "note": "[Compound 2.01, 5-{5-(4-Chloro-phenyl)-1-(2-chloro-phenyl)-3-[4-(2-fluoro-phenyl)-piperidine-1-carbonyl]-1H-pyrazol-4-ylmethyl}-3H-[1,3,4]oxadiazol-2-one]", "values": [
      {"measurement": "IC50", "result": "< 0.5", "unit": "µM"}
    ]},
    {"molecule": "CS(=O)(=O)NC(=O)Cc1c(C(=O)N2CCC(c3ccccc3F)CC2)nn(-c2ccccc2Cl)c1-c1ccc(Cl)cc1", "note": "[Compound 3.01, N-(2-{1-(2-Chloro-phenyl)-5-(4-chloro-phenyl)-3-[4-(2-fluoro-phenyl)-piperidine-1-carbonyl]-1H-pyrazol-4-yl}-acetyl)-methanesulfonamide]", "values": [
      {"measurement": "IC50", "result": "< 0.5", "unit": "µM"}
    ]},
    {"molecule": "C[C@H](c1ccc(C(F)(F)F)cc1)N(C)C(=O)c1nn(-c2ccccc2Cl)c(-c2ccc(Cl)cc2)c1CC(=O)NS(C)(=O)=O", "note": "[Compound 3.02, 1-(2-Chloro-phenyl)-5-(4-chloro-phenyl)-4-(2-methanesulfonylamino-2-oxo-ethyl)-1H-pyrazole-3-carboxylic acid methyl-[(R)-1-(4-trifluoromethyl-phenyl)-ethyl]-amide]", "values": [
      {"measurement": "IC50", "result": "< 0.5", "unit": "µM"}
    ]},
    {"molecule": "N#CNC(=O)Cc1c(C(=O)N2CCC(c3ccccc3F)CC2)nn(-c2ccccc2Cl)c1-c1ccc(Cl)cc1", "note": "[Compound 4.01, 2-{1-(2-Chloro-phenyl)-5-(4-chloro-phenyl)-3-[4-(2-fluoro-phenyl)-piperidine-1-carbonyl]-1H-pyrazol-4-yl}-N-cyano-acetamide]", "values": [
      {"measurement": "IC50", "result": "< 0.5", "unit": "µM"}
    ]},
    {"molecule": "C[C@H](c1ccc(C(F)(F)F)cc1)N(C)C(=O)c1nn(-c2ccccc2Cl)c(-c2ccc(Cl)cc2)c1CC(=O)NC#N", "note": "[Compound 4.02, (1-(2-Chloro-phenyl)-5-(4-chloro-phenyl)-3-{methyl-[(R)-1-(4-trifluoromethyl-phenyl)-ethyl]-carbamoyl}-1H-pyrazol-4-yl)-N-cyano-acetamide]", "values": [
      {"measurement": "IC50", "result": "< 0.5", "unit": "µM"}
    ]},
    {"molecule": "N#CNC(=O)Cc1c(C(=O)N2CCC(Oc3cc(F)cc(F)c3)CC2)nn(-c2ccccc2Cl)c1-c1ccc(Cl)cc1", "note": "[Compound 4.03, {1-(2-Chloro-phenyl)-5-(4-chloro-phenyl)-3-[4-(3,5-difluoro-phenoxy)-piperidine-1-carbonyl]-1H-pyrazol-4-yl}-N-cyano-acetamide]", "values": [
      {"measurement": "IC50", "result": "< 0.5", "unit": "µM"}
    ]},
    {"molecule": "C[C@H](c1ccc(C(F)(F)F)cc1)N(C)C(=O)c1nn(-c2ccccc2Cl)c(-c2ccc(Cl)cc2)c1C1CC(=O)NC1=O", "note": "(stereo partly drawn) [Compound 5.01, 1-(2-Chloro-phenyl)-5-(4-chloro-phenyl)-4-(2,5-dioxo-pyrrolidin-3-yl)-1H-pyrazole-3-carboxylic acid methyl-[(R)-1-(4-trifluoromethyl-phenyl)-ethyl]-amide]", "values": [
      {"measurement": "IC50", "result": "< 0.5", "unit": "µM"}
    ]},
    {"molecule": "O=C1NC(=O)C(Cc2c(C(=O)N3CCC(c4ccccc4F)CC3)nn(-c3ccccc3Cl)c2-c2ccc(Cl)cc2)N1", "note": "(centres unmarked) [Compound 6.01, 5-{1-(2-Chloro-phenyl)-5-(4-chloro-phenyl)-3-[4-(2-fluoro-phenyl)-piperidine-1-carbonyl]-1H-pyrazol-4-ylmethyl}-imidazolidine-2,4-dione]", "values": [
      {"measurement": "IC50", "result": "< 0.5", "unit": "µM"}
    ]},
    {"molecule": "C[C@@H](NC(=O)c1nn(-c2ccccc2Cl)c(-c2ccc(Cl)cc2)c1CC1NC(=O)NC1=O)c1ccc(C(F)(F)F)cc1", "note": "(some centres unmarked) [Compound 6.02]", "values": [
      {"measurement": "IC50", "result": "< 0.5", "unit": "µM"}
    ]}
  ]
}
